# Numbered stars: 1 amine (or outer) side, 2 acyl side, 3 side chain; on linkers, the order of the positions; unused ones are H or OH. Peptide text beside a SMILES is read from it. CO = O=C([*:1])[*:2]
# Experiments:
# [1] = system: bone (antebrachial bones: radii, cubiti); experiment: bone resorption inhibitory action (45Ca release from cultured fetal rat bones); type: cell-based, Sprague-Dawley rat; details: 48 h, 2 days culture, mean of 5 bone pieces, lower = stronger inhibition, read-out: Bone resorption Inhibitory Activity [45Ca release (Percent to control)]; for activity at 10 µM: concentration 10 μM, p<0.05, p<0.01, ***, p<0.001 vs. control; for activity at 30 µM: concentration 30 μM, p<0.05, p<0.01 vs. control
# Description: Bone resorption inhibitory activity was assayed by the method of Raisz [J. Clin. Invest. 44, 103-116 (1965) which is incorporated herein by reference]. Thus, a Sprague-Dawley rat on day 18 of gestation was subcutaneously dosed with 50 μCi of ^45 Ca (an isotope of calcium, dissolved in CaCl2). The following day, the abdomen was opened and the fetuses were aseptically extracted. Under the dissecting microscope, the bilateral antebrachial bones (radii, cubiti) were separated from the carcass and the connective tissues and cartilages were removed as far as possible to prepare bone culture specimens. Each of these bone specimens was put in 0.6 ml of BGJb medium (Fitton-Jackson modification; GIBCO Laboratories, USA) supplemented with bovine serum albumin (final concentration 2 mg/ml) and incubated at 37° C. for 24 hours. This bone was further cultured in the same medium containing the test compound (final concentration 10 μM or 30 μM) for 2 days. The percent ratio (%) of ^45 Ca released from the bone to the medium was calculated from the radioactivity count in the medium and that in the bone by means of the following equation. [formula]
# As a control group, the bones from a fetus of the same litter were similarly cultured for 2 days. The mean ± standard deviation was calculated for 5 bone pieces per group and the percentage (%) of this value relative to the value of the control group was calculated.
# human cathepsin L = biological target: T1, human cathepsin L (Homo sapiens, UniProt P07711); experiment: human cathepsin L inhibitory action; type: biochemical; details: recombinant human cathepsin L, substrate Z-Phe-Arg-NMec, pH 5.5, 30° C., 10 minutes
# T1 construct: made in house
# Description: The recombinant human cathepsin L obtained by the procedure described in Example 8 of the specification of EPC 931098792 (European Publication No. 0576953 A2) (which is incorporated herein by reference) was diluted to 1 μg/ml with a diluent (0.1% Brij35, Sigma). This diluted enzyme solution was admixed with 46 μl of said diluent, 2 μl of 0.1M DTT and 25 μl of an activator/buffer (340 mM sodium acetate, 60 mM acetic acid, 4 mM EDTA disodium, pH 5.5). Then, 1 μl of a solution of the test compound in dimethyl sulfoxide (DMSO) (10 ^-2 M) and 25 μl of 20 μM Z-phe-Arg-NMec (substrate solution) were added. The mixture was incubated at 30° C. for 10 minutes, after which 100 μl of a reaction stopper (100 mM sodium monochloroacetate, 30 mM sodium acetate, pH 4.3) was added. This reaction was carried out on a 96-well Fluoroplate (Labosystems).
# After termination of the reaction, the intensity of fluorescence of liberated aminomethylcoumarin at 450 nm was measured at an excitation wavelength of 365 nm. As a blank experiment, 1 μl of DMSO not containing the test compound was added and the intensity of fluorescence after the reaction was taken as 100% activity. For a sample showing a residual activity of 10% or less, a further diluted solution was used to determine the residual activity by the same procedure as above. Then, IC50 values were calculated.
# mice = experiment: oral toxicity in mice; type: in vivo; details: 500 mg/kg
# Excerpt: Moreover, its toxic potential is low. […] Therefore, the compound (Ia) or (Ib) of this invention can be used in the prophylaxis and therapy of osteoporosis in mammalian animals (e.g. mouse, rat, rabbit, dog, cat, cattle, swine and man).
# cathepsin L = details: reported as one of their inhibition activities; cited from earlier work
# T1 sequence (P07711 114-333): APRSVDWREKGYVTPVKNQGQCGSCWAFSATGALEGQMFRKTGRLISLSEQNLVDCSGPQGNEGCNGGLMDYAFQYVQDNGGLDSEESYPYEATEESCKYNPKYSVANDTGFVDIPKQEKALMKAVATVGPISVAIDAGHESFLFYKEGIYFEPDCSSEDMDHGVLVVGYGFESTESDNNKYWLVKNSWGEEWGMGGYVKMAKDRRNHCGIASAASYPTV
IC50 (human cathepsin L) [nM],Compound,activity at 10 µM [1] [%],other results
,CC(C)C[C@H](NC(=S)Nc1cccc2ccccc12)C(=O)N[C@H]1CCOC1O (stereo partly drawn) [Example 21],67,
57,CC[C@H](C)[C@H](NS(=O)(=O)c1cccc2ccccc12)C(=O)N[C@H]1CCOC1O (stereo partly drawn) [Example 4],,
32,CCCC(CCC)C(=O)N[C@H](C(=O)N[C@H]1CCOC1O)C(C)C (stereo partly drawn) [Example 12],64,
,CCCC(CCC)C(=O)N[C@H](C(=O)N[C@H]1CCO[C@H]1OC(C)=O)C(C)C [Example 60],,deaths after oral administration (mice): killed no test animals
28,O=C(N[C@@H](Cc1ccccc1)C(=O)N[C@H]1CCCOC1O)OCc1ccccc1 (stereo partly drawn) [Example 23],,
30,CC(C)[C@H](NC(=O)OCc1ccccc1)C(=O)N[C@H]1CCOC1O (stereo partly drawn) [Example 6],,
8,O=C(N[C@@H](Cc1ccccc1)C(=O)N[C@H]1CCOC1O)OCc1ccccc1 (stereo partly drawn) [Example 5],,
,"CC(C)C[C@H](NC(=O)Nc1cccc2ccccc12)C(=O)NC1CCOC1O (stereo partly drawn) [Example 32, 2-hydroxy-3-[[N-(1-naphthylcarbamoyl)-(L)-leucyl]amino]tetrahydrofuran]",,activity at 30 µM [1]: 77%
,"CC(C)C[C@H](NS(=O)(=O)c1cccc2ccccc12)C(=O)N[C@H]1CCCOC1O (stereo partly drawn) [Example 35, (3S)-2-hydroxy-3-[[N-(1-naphthalenesulfonyl)-(L)-leucyl]amino]tetrahydropyran]",82,
52,CC(C)C[C@H](NC(=O)OCc1ccccc1)C(=O)N[C@@H](CC(C)C)C(=O)N[C@H]1CCCOC1O (stereo partly drawn) [Example 38],,
190,"COC1OCC[C@@H]1NC(=O)[C@H](CC(C)C)NC(=O)Nc1cccc2ccccc12 (stereo partly drawn) [Example 89, (3S)-2-methoxy-3-[[N-(1-naphthylcarbamoyl)-(L)-leucyl]amino]-tetrahydrofuran]",,
,"COC(=O)C[C@H](NC(=O)OCc1ccccc1)C(=O)N[C@H]1CCOC1OC (stereo partly drawn) [Example 74, (3S)-3-[[N-benzyloxycarbonyl-(L)-(3-methoxycarbonyl)alanyl]amino] -2-methoxytetrahydrofuran]",78,
870,CC(=O)O[C@@H]1OCC[C@@H]1NC(=O)[C@H](CC(C)C)NC(=O)c1cccnc1 [Example 62],,
,CC(C)C[C@H](NC(=O)OCc1ccccc1)C(=O)N[C@@H](CC(C)C)C(=O)N[C@H]1CCOC1O (stereo partly drawn) [Example 16],77,
,"CC(=O)O[C@@H]1OCC[C@@H]1NC(=O)[C@H](CC(C)C)NC(=O)Nc1cccc2ccccc12 [Example 29, (2S,3S)-2-acetoxy-3-[[N-(1-naphthylcarbamoyl)-(L)-leucyl]amino]-tetrahydrofuran]",,activity at 30 µM [1]: 67%
9.4,O=C(COc1ccccc1)N[C@@H](Cc1ccccc1)C(=O)N[C@H]1CCOC1O (stereo partly drawn) [Example 14],,
,"CCCC(CCC)C(=O)N[C@H](C(=O)N[C@H]1CCO[C@@H]1OC)C(C)C [Example 73, (2S,3S)-2-methoxy-3-[[N-valproyl-(L)-valyl]amino]tetrahydrofuran]",79,
,CC(=O)N[C@@H](CC(C)C)C(=O)N[C@@H](CC(C)C)C(=O)N[C@H](C=O)CCCNC(=N)N [leupeptin],,cathepsin L inhibitory activity (cathepsin L): cathepsin L inhibitory activity
6.9,CC(C)C[C@H](NC(=O)Nc1cccc2ccccc12)C(=O)N[C@H]1CCOC1O (stereo partly drawn) [Example 17],,
,CC(C)[C@H](NC(=O)[C@H](CCCNC(=N)N)NC(=O)N[C@@H](Cc1ccccc1)C(=O)O)C(=O)N[C@H](C=O)CCCNC(=N)N [antipain] ({Phe-CO}-Arg-Val-Arg-aldehyde),,cathepsin L inhibitory activity (cathepsin L): cathepsin L inhibitory activity
,CC(C)C[C@H](NC(=O)OCc1ccccc1)C(=O)N[C@H]1CCOC1O (stereo partly drawn) [Example 15],26,
690,CC(=O)O[C@@H]1OCC[C@@H]1NC(=O)[C@H](CC(C)C)NC(=O)c1ccccn1 [Example 64],,

Compound,IC50 (human cathepsin L) [nM],activity at 10 µM [1] [%],other results
"CC(C)(C)OC(=O)N[C@@H](Cc1ccccc1)C(=O)N[C@H]1CCOC1O (stereo partly drawn) [Example 1, (3S)-3-[[N-tert-butoxycarbonyl-(L)-phenylalanyl]amino]-2-hydroxytetrahydrofuran]",30,,
"CC(=O)OC1OCC[C@@H]1NC(=O)[C@@H](NC(=O)OCc1ccccc1)C(C)C (stereo partly drawn) [Example 25, (3S)-2-acetoxy-3-[[N-benzyloxycarbonyl-(L)-valyl]amino]tetrahydrofuran]",450,75,
CCOP(=O)(Cc1ccc(C(=O)N[C@@H](CC(C)C)C(=O)N[C@H]2CCOC2O)cc1)OCC (stereo partly drawn) [Example 42],29,,
